In ChEMBL document CHEMBL1201862, “PubChem BioAssay data set” (2004):
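Method: 48-hour compound exposure of cells in 96-well plates, five concentrations, linear interpolation of endpoints. Here, GI50 denotes the concentration required for 50% inhibition of growth.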 Calls of active or inactive are those of the source. Rule as the data show it: active = GI50 up to about 1.1 µM and inactive = higher.

Assays:
Assay in all cases: growth of human tumour cells (NCI), 48 h
786-0 = tested on: 786-0
A498 = tested on: A498
A549 = tested on: A549
ACHN = tested on: ACHN
BT-549 = tested on: BT-549
CAKI-1 = tested on: CAKI-1
CCRF-CEM = tested on: CCRF-CEM
COLO 205 = tested on: COLO 205
DU-145 = tested on: DU-145
EKVX = tested on: EKVX
HCC 2998 = tested on: HCC 2998
HCT-116 = tested on: HCT-116
HCT-15 = tested on: HCT-15
HL-60 = tested on: HL-60
HOP-62 = tested on: HOP-62
HOP-92 = tested on: HOP-92
HT-29 = tested on: HT-29
IGROV-1 = tested on: IGROV-1
K562 = tested on: K562
KM12 = tested on: KM12
LOX IMVI = tested on: LOX IMVI
M14 = tested on: M14
MCF7 = tested on: MCF7
MDA-MB-231 = tested on: MDA-MB-231
MDA-MB-435 = tested on: MDA-MB-435
MDA-N = tested on: MDA-N
MOLT-4 = tested on: MOLT-4
Malme-3M = tested on: Malme-3M
NCI-H226 = tested on: NCI-H226
NCI-H23 = tested on: NCI-H23
NCI-H460 = tested on: NCI-H460
NCI-H522 = tested on: NCI-H522
NCI/ADR-RES = tested on: NCI/ADR-RES
OVCAR-3 = tested on: OVCAR-3
OVCAR-4 = tested on: OVCAR-4
OVCAR-5 = tested on: OVCAR-5
OVCAR-8 = tested on: OVCAR-8
PC-3 = tested on: PC-3
RPMI-8226 = tested on: RPMI-8226
RXF 393 = tested on: RXF 393
SF-295 = tested on: SF-295
SF-539 = tested on: SF-539
SK-MEL-28 = tested on: SK-MEL-28
SK-MEL-2 = tested on: SK-MEL-2
SK-MEL-5 = tested on: SK-MEL-5
SN12C = tested on: SN12C
SNB-19 = tested on: SNB-19
SNB-75 = tested on: SNB-75
SR = tested on: SR
SW-620 = tested on: SW-620
U-251 = tested on: U-251
UACC-257 = tested on: UACC-257
UACC-62 = tested on: UACC-62
UO-31 = tested on: UO-31
SF-268 = tested on: SF-268
SK-OV-3 = tested on: SK-OV-3
T47D = tested on: T47D
TK-10 = tested on: TK-10

## ClC1=NSSC1(Cl)Cl
786-0
  GI50: 23.6 µM (inactive)
A498
  GI50: > 100 µM (inactive)
A549
  GI50: > 100 µM (inactive)
ACHN
  GI50: 20.4 µM (inactive)
BT-549
  GI50: 41.6 µM (inactive)
CAKI-1
  GI50: 18.5 µM (inactive)
CCRF-CEM
  GI50: 6.47 µM (inactive)
COLO 205
  GI50: 14.7 µM (inactive)
DU-145
  GI50: > 100 µM (inactive)
EKVX
  GI50: 58.3 µM (inactive)
HCC 2998
  GI50: > 100 µM (inactive)
HCT-116
  GI50: 30.6 µM (inactive)
HCT-15
  GI50: 18.4 µM
HL-60
  GI50: 2.4 µM (inactive)
HOP-62
  GI50: > 100 µM (inactive)
HOP-92
  GI50: > 10 µM (inactive)
HT-29
  GI50: 30.5 µM (inactive)
IGROV-1
  GI50: 61 µM (inactive)
K562
  GI50: 5.9 µM (inactive)
KM12
  GI50: 71.1 µM (inactive)
LOX IMVI
  GI50: 40.8 µM (inactive)
M14
  GI50: 19.8 µM (inactive)
MCF7
  GI50: 32.3 µM (inactive)
MDA-MB-231
  GI50: 30.8 µM (inactive)
MDA-MB-435
  GI50: 41.8 µM (inactive)
MDA-N
  GI50: 27.7 µM (inactive)
MOLT-4
  GI50: 14.8 µM (inactive)
Malme-3M
  GI50: 28.6 µM (inactive)
NCI-H226
  GI50: > 100 µM (inactive)
NCI-H23
  GI50: > 100 µM (inactive)
NCI-H460
  GI50: 36.9 µM (inactive)
NCI-H522
  GI50: 7.6 µM (inactive)
NCI/ADR-RES
  GI50: 34.8 µM (inactive)
OVCAR-3
  GI50: 25.2 µM (inactive)
OVCAR-4
  GI50: 44.2 µM (inactive)
OVCAR-5
  GI50: 29.9 µM (inactive)
OVCAR-8
  GI50: 24.4 µM (inactive)
PC-3
  GI50: 61.7 µM (inactive)
RPMI-8226
  GI50: 23.5 µM (inactive)
RXF 393
  GI50: 46.1 µM (inactive)
SF-295
  GI50: 61.5 µM (inactive)
SF-539
  GI50: 40.5 µM (inactive)
SK-MEL-28
  GI50: > 10 µM (inactive)
SK-MEL-2
  GI50: > 100 µM (inactive)
SK-MEL-5
  GI50: 14.1 µM (inactive)
SN12C
  GI50: 22.1 µM (inactive)
SNB-19
  GI50: 90.4 µM (inactive)
SNB-75
  GI50: 41.7 µM (inactive)
SR
  GI50: 21 µM (inactive)
SW-620
  GI50: 20.7 µM (inactive)
U-251
  GI50: 56.6 µM (inactive)
UACC-257
  GI50: 51.8 µM (inactive)
UACC-62
  GI50: 45.7 µM (inactive)
UO-31
  GI50: 26.7 µM (inactive)

## Cc1cnc(Cl)nc1C(C#N)c1nc2ccccc2n1C (stereo not drawn)
786-0
  GI50: 44.4 µM (inactive)
A498
  GI50: > 100 µM (inactive)
A549
  GI50: 62.5 µM (inactive)
ACHN
  GI50: 66.8 µM (inactive)
BT-549
  GI50: > 100 µM (inactive)
CAKI-1
  GI50: 95.3 µM (inactive)
COLO 205
  GI50: > 100 µM (inactive)
DU-145
  GI50: > 100 µM (inactive)
EKVX
  GI50: 6.31 µM (inactive)
HCT-116
  GI50: 23.2 µM (inactive)
HCT-15
  GI50: > 100 µM
HOP-62
  GI50: 55.7 µM (inactive)
HOP-92
  GI50: > 100 µM (inactive)
HT-29
  GI50: 35.9 µM (inactive)
IGROV-1
  GI50: 33.4 µM (inactive)
KM12
  GI50: > 100 µM (inactive)
LOX IMVI
  GI50: 34.1 µM (inactive)
M14
  GI50: > 100 µM (inactive)
MDA-MB-231
  GI50: > 100 µM (inactive)
MDA-MB-435
  GI50: > 100 µM (inactive)
MDA-N
  GI50: > 100 µM (inactive)
MOLT-4
  GI50: > 100 µM (inactive)
Malme-3M
  GI50: > 100 µM (inactive)
NCI-H226
  GI50: > 100 µM (inactive)
NCI-H23
  GI50: 66.7 µM (inactive)
NCI-H460
  GI50: 46.1 µM (inactive)
NCI-H522
  GI50: 15.1 µM (inactive)
NCI/ADR-RES
  GI50: 56.1 µM (inactive)
OVCAR-3
  GI50: > 100 µM (inactive)
OVCAR-4
  GI50: 49.1 µM (inactive)
OVCAR-5
  GI50: 64.3 µM (inactive)
OVCAR-8
  GI50: 38.6 µM (inactive)
RPMI-8226
  GI50: 85.9 µM (inactive)
RXF 393
  GI50: 58.9 µM (inactive)
SF-268
  GI50: 29.9 µM (inactive)
SF-295
  GI50: > 100 µM (inactive)
SF-539
  GI50: 31 µM (inactive)
SK-MEL-28
  GI50: 93.1 µM (inactive)
SK-MEL-5
  GI50: > 100 µM (inactive)
SK-OV-3
  GI50: > 100 µM (inactive)
SN12C
  GI50: > 100 µM (inactive)
SNB-19
  GI50: 41.6 µM (inactive)
SNB-75
  GI50: 10.1 µM (inactive)
SW-620
  GI50: > 100 µM (inactive)
T47D
  GI50: 84.9 µM (inactive)
TK-10
  GI50: 36 µM (inactive)
U-251
  GI50: 19.5 µM (inactive)
UACC-257
  GI50: > 100 µM (inactive)
UO-31
  GI50: > 100 µM (inactive)
